For 13 molecules, IC50 results are on record in patent US12030878B2 (BRISTOL-MYERS SQUIBB COMPANY, priority 2017, dated 2024).

Holding throughout (assay type): cell-based
The target of one assay is T1, human TLR9 (Homo sapiens, UniProt Q9NR96).
T1 construct: host or cells: HEK-Blue cells
T1 sequence (Q9NR96 26-1032): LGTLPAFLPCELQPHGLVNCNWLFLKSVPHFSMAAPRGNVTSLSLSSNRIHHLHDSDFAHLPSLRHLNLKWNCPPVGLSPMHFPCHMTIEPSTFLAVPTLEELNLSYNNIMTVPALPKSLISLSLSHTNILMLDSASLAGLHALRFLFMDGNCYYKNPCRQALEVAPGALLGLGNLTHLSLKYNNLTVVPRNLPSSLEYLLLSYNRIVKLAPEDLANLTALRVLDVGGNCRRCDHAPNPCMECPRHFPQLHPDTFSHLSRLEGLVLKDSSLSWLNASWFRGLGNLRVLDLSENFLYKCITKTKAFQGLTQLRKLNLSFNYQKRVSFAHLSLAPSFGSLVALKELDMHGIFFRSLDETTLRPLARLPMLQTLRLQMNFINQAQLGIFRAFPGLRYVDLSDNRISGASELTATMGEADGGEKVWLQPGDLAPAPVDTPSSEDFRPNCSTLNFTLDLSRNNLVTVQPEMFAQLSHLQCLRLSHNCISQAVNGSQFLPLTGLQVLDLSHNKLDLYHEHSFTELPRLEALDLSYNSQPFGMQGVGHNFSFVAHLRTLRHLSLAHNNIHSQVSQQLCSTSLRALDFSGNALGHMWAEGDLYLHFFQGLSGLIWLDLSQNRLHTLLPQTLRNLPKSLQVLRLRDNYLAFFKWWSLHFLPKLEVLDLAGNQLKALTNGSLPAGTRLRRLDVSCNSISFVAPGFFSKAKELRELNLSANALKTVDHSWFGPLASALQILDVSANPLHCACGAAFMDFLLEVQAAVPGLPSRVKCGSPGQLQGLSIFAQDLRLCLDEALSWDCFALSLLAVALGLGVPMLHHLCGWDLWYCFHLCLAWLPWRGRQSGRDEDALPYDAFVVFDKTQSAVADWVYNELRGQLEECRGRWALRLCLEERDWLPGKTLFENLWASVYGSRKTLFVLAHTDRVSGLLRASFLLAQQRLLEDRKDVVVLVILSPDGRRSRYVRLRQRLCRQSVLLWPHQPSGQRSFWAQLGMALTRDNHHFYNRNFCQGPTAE
Briefly: TLR9 inhibition reporter assay (HEK-Blue SEAP). Conditions: HEK-Blue cells overexpressing human TLR9, stimulated with ODN2006 5 nM, 22 hour incubation. The method, boiled down: (§1)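 HEK-Blue cells with NF-κB/AP-1-driven SEAP reporter; compounds 0.05 nM-50 μM, 30 min pre-treatment at room temperature, then agonist: gardiquimod 7.5 μM (TLR7), R848 15.9 μM (TLR8) or ODN2006 5 nM (TLR9). SEAP read after 22 h at 37 °C; percent inhibition versus agonist-plus-DMSO and reference-inhibitor wells.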
(In a reporter assay the amount or activity of a reporter protein is the signal.)

A further assay concerns the target T2, human TLR8 (Homo sapiens, UniProt Q9NR97).
T2 construct: host or cells: HEK-Blue cells
T2 sequence (Q9NR97 27-1041): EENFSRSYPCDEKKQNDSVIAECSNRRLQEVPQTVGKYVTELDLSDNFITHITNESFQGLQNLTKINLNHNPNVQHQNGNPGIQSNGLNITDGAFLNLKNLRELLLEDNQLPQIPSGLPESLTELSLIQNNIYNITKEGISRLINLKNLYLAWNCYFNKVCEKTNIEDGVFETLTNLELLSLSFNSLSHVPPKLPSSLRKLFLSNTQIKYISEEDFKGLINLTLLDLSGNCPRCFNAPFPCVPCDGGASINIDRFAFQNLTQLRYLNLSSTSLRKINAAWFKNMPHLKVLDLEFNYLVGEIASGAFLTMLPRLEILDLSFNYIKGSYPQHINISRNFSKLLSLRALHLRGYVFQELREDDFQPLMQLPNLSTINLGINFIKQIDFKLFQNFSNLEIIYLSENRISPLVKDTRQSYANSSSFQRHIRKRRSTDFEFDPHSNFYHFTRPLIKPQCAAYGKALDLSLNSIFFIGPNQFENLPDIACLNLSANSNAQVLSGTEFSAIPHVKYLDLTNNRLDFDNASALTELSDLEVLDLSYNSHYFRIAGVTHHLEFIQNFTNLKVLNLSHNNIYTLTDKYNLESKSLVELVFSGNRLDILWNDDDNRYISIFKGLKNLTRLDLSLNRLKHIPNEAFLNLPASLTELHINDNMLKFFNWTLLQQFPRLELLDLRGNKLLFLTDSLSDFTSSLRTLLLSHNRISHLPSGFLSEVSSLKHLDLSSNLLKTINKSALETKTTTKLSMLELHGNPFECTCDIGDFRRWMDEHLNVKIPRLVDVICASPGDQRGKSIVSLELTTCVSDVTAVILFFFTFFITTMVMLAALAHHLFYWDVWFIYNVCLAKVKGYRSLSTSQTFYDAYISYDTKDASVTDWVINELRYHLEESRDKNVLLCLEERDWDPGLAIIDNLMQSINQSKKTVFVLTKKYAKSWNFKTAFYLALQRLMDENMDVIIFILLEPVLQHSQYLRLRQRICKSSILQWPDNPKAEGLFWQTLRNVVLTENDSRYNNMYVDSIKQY
Briefly: TLR8 inhibition reporter assay (HEK-Blue SEAP). As to conditions: HEK-Blue cells overexpressing human TLR8, stimulated with R848 15.9 μM, 22 hour incubation. In a few lines: as §1

The next assay has as its target T3, human TLR7 (Homo sapiens, UniProt Q9NYK1).
T3 construct: host or cells: HEK-Blue cells
T3 sequence (Q9NYK1 27-1049): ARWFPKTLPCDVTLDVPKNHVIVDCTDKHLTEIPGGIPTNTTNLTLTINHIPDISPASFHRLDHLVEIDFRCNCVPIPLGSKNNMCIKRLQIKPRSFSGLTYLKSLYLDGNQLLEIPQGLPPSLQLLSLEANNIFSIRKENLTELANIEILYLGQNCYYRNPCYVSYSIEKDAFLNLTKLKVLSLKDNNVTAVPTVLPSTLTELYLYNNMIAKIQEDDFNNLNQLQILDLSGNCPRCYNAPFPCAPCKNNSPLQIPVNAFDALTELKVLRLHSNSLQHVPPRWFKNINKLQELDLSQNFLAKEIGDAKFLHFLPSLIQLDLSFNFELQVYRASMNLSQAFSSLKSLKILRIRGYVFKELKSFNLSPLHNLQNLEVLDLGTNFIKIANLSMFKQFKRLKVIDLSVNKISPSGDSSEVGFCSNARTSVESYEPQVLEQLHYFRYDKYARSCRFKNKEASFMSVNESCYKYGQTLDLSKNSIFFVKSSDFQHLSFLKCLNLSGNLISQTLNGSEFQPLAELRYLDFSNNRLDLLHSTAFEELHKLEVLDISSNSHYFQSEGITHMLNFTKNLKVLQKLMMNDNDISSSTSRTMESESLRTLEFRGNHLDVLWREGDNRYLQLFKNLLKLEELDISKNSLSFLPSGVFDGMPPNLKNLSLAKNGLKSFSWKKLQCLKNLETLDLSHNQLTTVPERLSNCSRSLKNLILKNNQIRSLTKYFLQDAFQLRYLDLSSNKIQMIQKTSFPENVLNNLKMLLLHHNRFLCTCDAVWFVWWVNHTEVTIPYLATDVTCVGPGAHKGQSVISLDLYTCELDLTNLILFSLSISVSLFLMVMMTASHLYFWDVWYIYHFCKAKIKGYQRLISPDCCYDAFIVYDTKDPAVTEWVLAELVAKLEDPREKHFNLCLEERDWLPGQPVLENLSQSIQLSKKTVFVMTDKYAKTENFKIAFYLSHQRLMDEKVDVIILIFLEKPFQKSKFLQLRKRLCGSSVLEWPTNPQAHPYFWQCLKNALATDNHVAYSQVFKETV
Briefly: TLR7 inhibition reporter assay (HEK-Blue SEAP). Conditions: HEK-Blue cells overexpressing human TLR7, stimulated with gardiquimod 7.5 μM, 22 hour incubation. In a few lines:
as §1

Usually IC50 stands for the concentration that gives 50% inhibition. A higher IC50 goes with weaker potency. For `COc1cc(-c2[nH]c3ccc(OC4CCN(C(C)C)CC4)cc3c2C(C)C)cn2ncnc12` [Example 66, 6-(3-isopropyl-5-((1-isopropylpiperidin-4-yl)oxy)-1H-indol-2-yl)-8-methoxy-[1,2,4]triazolo[1,5-a]pyridine], the IC50 stood at 1150 nM on human TLR9, 0.7 nM against human TLR8 and 0.8 nM against human TLR7.
Consider `CCCN1CCC(Oc2ccc3[nH]c(-c4cc(OC)c5ncnn5c4)c(C(C)C)c3c2)CC1` [Example 67, 6-(3-isopropyl-5-((1-propylpiperidin-4-yl)oxy)-1H-indol-2-yl)-8-methoxy-[1,2,4]triazolo[1,5-a]pyridine], for which the figures for the IC50 at human TLR9, against human TLR8 and against human TLR7 were 1060 nM, 0.2 nM and 0.2 nM, respectively.
As for `Cc1cc(-c2[nH]c3ccc(OC4CCN(C5CCOCC5)CC4)cc3c2C(C)C)cn2ncnc12` [Example 68, 6-(3-isopropyl-5-((1-(tetrahydro-2H-pyran-4-yl)piperidin-4-yl)oxy)-1H-indol-2-yl)-8-methyl-[1,2,4]triazolo[1,5-a]pyridine], the half-inhibitory concentration (IC50) on human TLR9 turned out to be 2290 nM; on human TLR8 it was 1.7 nM; at human TLR7, 5.9 nM.
Taken in the same sequence, the figures for `Cc1cc(-c2[nH]c3ccc(OC4CCN(CC(C)O)CC4)cc3c2C(C)C)cc(C)n1` (stereo not drawn) [Example 69, 1-(4-((2-(2,6-dimethylpyridin-4-yl)-3-isopropyl-1H-indol-5-yl)oxy)piperidin-1-yl) propan-2-ol] were 733 nM, 2.4 nM and 5.6 nM.
Taken in the same sequence, the figures for `Cc1cc(-c2[nH]c3ccc(OC4CCN(CCO)CC4)cc3c2C(C)C)cc(C)n1` [Example 70, 2-(4-((2-(2,6-dimethylpyridin-4-yl)-3-isopropyl-1H-indol-5-yl)oxy)piperidin-1-yl) ethan-1-ol] were 1040 nM, 1.5 nM and 9.6 nM.
The like results for `Cc1cc(-c2[nH]c3ccc(OCC4CCN(CCO)CC4)cc3c2C(C)C)cc(C)n1` [Example 71, 2-(4-(((2-(2,6-dimethylpyridin-4-yl)-3-isopropyl-H-indol-5-yl)oxy)methyl)piperidin-1-yl)ethan-1-ol] were, in that order, 359 nM, 2.5 nM and 3.8 nM.
With `Cc1cc(-c2[nH]c3ccc(OC4CCN(CCCO)CC4)cc3c2C(C)C)cc(C)n1` [Example 72, 3-(4-((2-(2,6-dimethylpyridin-4-yl)-3-isopropyl-1H-indol-5-yl)oxy)piperidin-1-yl)propan-1-ol], the concentration for half-maximal inhibition (IC50) on human TLR9 turned out to be 528 nM; on human TLR8, 1.3 nM; on human TLR7 it was 3.8 nM.
For `COCCN1CCC(COc2ccc3[nH]c(-c4cc(C)nc(C)c4)c(C(C)C)c3c2)CC1` [Example 73, 2-(2,6-dimethylpyridin-4-yl)-3-isopropyl-5-((1-(2-methoxyethyl)piperidin-4-yl)methoxy)-1H-indole], the results for the IC50 at human TLR9, against human TLR8 and against human TLR7 were 633 nM, 5.2 nM and 13.4 nM, respectively.
Consider `COCCN1CCC(COc2ccc3[nH]c(-c4cc(C)c(=O)n(C)c4)c(C(C)C)c3c2)CC1` [Example 74, 5-(3-isopropyl-5-((1-(2-methoxyethyl)piperidin-4-yl)methoxy)-1H-indol-2-yl)-1,3-dimethylpyridin-2(1H)-one], for which the results for the IC50 on human TLR9, against human TLR8 and on human TLR7 were 29200 nM, 3.9 nM and 20.7 nM, respectively.
The like results for `COCCN1CCC(Oc2ccc3[nH]c(-c4cc(C)nc(C)c4)c(C(C)C)c3c2)CC1` [Example 75, 2-(2,6-dimethylpyridin-4-yl)-3-isopropyl-5-((1-(2-methoxyethyl)piperidin-4-yl)oxy)-1H-indole] were, in that order, 663 nM, 1.5 nM and 10.5 nM.
Taken in the same sequence, the figures for `Cc1cc(-c2[nH]c3ccc(OC4CCN(CC(C)C)CC4)cc3c2C(C)C)cn(C)c1=O` [Example 76, 5-(5-((1-isobutylpiperidin-4-yl)oxy)-3-isopropyl-1H-indol-2-yl)-1,3-dimethylpyridin-2(1H)-one] were 5570 nM, 0.8 nM and 2.8 nM.
Taken in the same sequence, the figures for `Cc1cc(-c2[nH]c3ccc(OC4CCN(CC(C)C)CC4)cc3c2C(C)C)cn2ncnc12` [Example 77, 6-(5-((1-isobutylpiperidin-4-yl)oxy)-3-isopropyl-1H-indol-2-yl)-8-methyl-[1,2,4]triazolo[1,5-a]pyridine] were 2830 nM, 1.4 nM and 2.9 nM.
For the molecule `Cc1cc(-c2[nH]c3ccc(OC4CCN(CCCC(F)(F)F)CC4)cc3c2C(C)C)cn(C)c1=O` [Example 78, 5-(3-isopropyl-5-((1-(4,4,4-trifluorobutyl)piperidin-4-yl)oxy)-1H-indol-2-yl)-1,3-dimethylpyridin-2(1H)-one], the IC50 against human TLR9 is 6310 nM; on human TLR8 it was 1.1 nM; against human TLR7 it was 10.9 nM.
